According to PMC3711124 (Biochemistry, 2008):
No end group written: not given here.

What was measured:
[1] = Circular dichroism of E5TM in DPC micelles; format: physicochemical; conditions: CD, 5°C-95°C in 10°C increments, 15 mM DPC, pH 7.5, 114 μM peptide
AUC = molecular target: the molecule itself; experiment: AUC

Molecule	thermal stability of α-helical structure [1]	stoichiometry N (AUC)
Ac-KKKFLGLVAAMQLLLLLFLLLFFLVYWDHK [E5TM]	Only a small decrease in α-helical structure was observed	–
KKKFLGLVAAMQLLLLLFLLLFFLVYWDHK (also: end-caps on C- and N-termini, not given here) [E5TM peptide (transmembrane domain of the bovine papillomavirus E5 protein, residues F9-H34, with fl]	–	2
